Assay results: patent US8076377B2, “N,N-dimethyl imidodicarbonimidic diamide dicarboxylate, method for producing the same and pharmaceutical compositions comprising the same” (Hanall Pharmaceutical Company, Ltd., priority 2007, dated 2011)
Where a name gives a salt, the structure may show the parent alone.

Tests used:
rabbit = details: oral; cited from earlier work
[1] = pH at saturation
[2] = Water content with Karl-Fisher moisture meter after exposure to temperature/relative humidity (hygroscopicity, hydrate stability)
[3] = test system: hyperlipidemia-induced rats; experiment: Effect on blood lipid, oral administration for 1 week to hyperlipidemia-induced rats (blood biochemical tests); details: 500 mg/kg oral for 1 week, average ± standard deviation
rat = details: oral; cited from earlier work

| Compound | Saturation pH [1] | water content ([2]; 40° C., 75% R.H., day 0) [wt %] | water content ([2]; 40° C., 75% R.H., day 1) [wt %] | water content ([2]; 40° C., 75% R.H., day 2) [wt %] | water content ([2]; 40° C., 75% R.H., day 5) [wt %] | water content ([2]; 60° C., 15% R.H., day 0) [wt %] | water content ([2]; 60° C., 15% R.H., day 1) [wt %] | water content ([2]; 60° C., 15% R.H., day 2) [wt %] | water content ([2]; 60° C., 15% R.H., day 5) [wt %] | ALT [3] [IU/L] | AST [3] [IU/L] | BUN [3] [mg/dL] | CHO (Cholesterol) [3] [mg/dL] | CRE [3] [mg/dL] | HDL [3] [mg/dL] | LDL [3] [mg/dL] | TG (Triglyceride) [3] [mg/dL] | further results |
| --- | --- | --- | --- | --- | --- | --- | --- | --- | --- | --- | --- | --- | --- | --- | --- | --- | --- | --- |
| Cl [Hydrochloric acid] |  |  |  |  |  |  |  |  |  |  |  |  |  |  |  |  |  | LD50 (50% lethal dose) (rabbit): LD50 900 mg/kg |
| CN(C)C(=N)N=C(N)N.O=C(O)CCCC(=O)O [Metformin glutarate, metformin (2:1) glutarate] | 10.200 |  |  |  |  |  |  |  |  |  |  |  |  |  |  |  |  |  |
| CN(C)C(=N)N=C(N)N [Metformin hydrochloride, metformin hydrochloride, reference compound] | 2.892 | 0.080 | 0.069 | 0.053 | 0.054 | 0.080 | 0.044 | 0.047 | 0.056 | 49.8 ± 4.8 | 126.9 ± 8.4 | 13.6 ± 0.4 | 277.1 ± 21.8 | 0.5 ± 0.0 | 42.5 ± 1.0 | 198.3 ± 18.5 | 37.3 ± 1.5 |  |
| CN(C)C(=N)NC(=N)N [Metformin malate, metformin (2:1) malate] | 3.950 |  |  |  |  |  |  |  |  |  |  |  |  |  |  |  |  |  |
| O=C(O)CCCC(=O)O [glutaric acid] |  |  |  |  |  |  |  |  |  |  |  |  |  |  |  |  |  | LD50 (50% lethal dose) (rat): LD50 6000 mg/kg |
| metformin (2:1) malonate [Metformin malonate] |  | 5.143 | 5.403 | 5.288 | 5.376 | 5.143 | 5.222 | 5.219 | 5.184 | 49.0 ± 7.0 | 136.6 ± 11.6 | 15.3 ± 0.9 | 238.2 ± 16.4 | 0.5 ± 0.0 | 40.4 ± 1.4 | 168.3 ± 13.7 | 50.3 ± 7.9 |  |
